Laboratory results: US20260151457A1, “Peptides and Fragments for Treating Diabetes and Associated Metabolic Diseases” (Betavive Ltd., priority 2024, published 2026)

Columns and labels:
[1] = Blood concentration of IGF-2 after 40 μg intraperitoneal injection (ELISA); type: in vivo, mouse; conditions: 240 minute time frame
Text: Without being bound by this theory, it is believed that IGF-2 binding proteins may initially inactivate the biological activity of free IGF-2. And over time, the bond between IGF-2 and the binding protein may be released, increasing the bioavailability of IGF-2 and leading to a longer term effective treatment.

[2] = system: STZ-treated mice; experiment: Intraperitoneal glucose tolerance test on STZ-treated mice treated with IGF-2; type: in vivo
Method: In this experiment, four STZ-treated mice were treated with 12,000 μg/kg/day of IGF-2 (four injections of 3000 μg/kg/day) 5 days and two mice were treated for 10 days. A glucose tolerance test was performed 50 days post-treatment with IGF-2 by challenging the treated mice with a 2 grams/kg dose of glucose and determining the blood glucose level over a 180 minute time course. The blood glucose curves of the treated mice were compared to results for a saline control, and normal (nondiabetic) obese and normal (nondiabetic) lean mice based on published literature (Jorgensen et al., J. Am Assoc. Lab. Animal Sci 2017 56 (1): 95-97).

[3] = system: db/db mice; experiment: Serum insulin in db/db mice after long-term IGF-2 treatment; type: in vivo; conditions: 12,000 μg/kg daily for 68 days, measured 6.5 weeks after end of treatment
Method: In this experiment, one group of db/db mice (labeled FA X1) was injected with 3000 μg/kg of IGF-2 once a day for 68 days, a second group of db/db mice (labeled FA X4) was injected with a daily dose of 12000 μg/kg of IGF-2 divided in two injections per day for 68 days, and a third group of db/db mice was injected with saline. Serum insulin levels were measured 6.5 weeks after the end of the 68 day treatment. Treatment with the 12,000 μg/kg daily dose increased serum insulin levels by about 50% with respect to the control.

[4] = system: NOD mice; experiment: Incidence of spontaneous autoimmune type 1 diabetes in NOD mice treated with IGF-2; type: in vivo
Method: Non-Obese Diabetic (NOD) mice are a polygenic model for spontaneous autoimmune type 1 diabetes (T1D). NOD mice have an elevated risk for development of autoimmune type 1 diabetes. Thus, NOD mice were used to determine whether treatment IGF-2 reduces spontaneous development of type 1 diabetes.
In this experiment, one group of NOD mice (right panel) was injected with 3000 μg/kg of IGF-2 on each of 76 consecutive days, and a second group of NOD mice (left panel) was injected with saline. […] More specifically, at the end of the 76 days of treatment, only two of the treated mice had developed high glucose levels.
FIG. 30A depicts how many NOD mice have developed autoimmune type I diabetes during an initial 66 days of treatment with IGF-2, and at various intervals post-treatment. In this experiment, one group of NOD mice was injected with 3000 μg/kg of IGF-2 on each of 66 consecutive days, and a second group of NOD mice was injected with saline.
(§1) In one exemplary experiment, NOD mice were treated with a 3000 μg/kg daily doses of IGF-2 for 150 days. ⅘ of the treated mice maintained normoglycemia compared to ¼ of the control mice. In another exemplary experiment, NOD mice were treated with a 3000 μg/kg daily dose of IGF-2 for 75 days with follow-up glucose measurements taken for an additional 90 days (during which IGF-2 was not administered). ⅝ of the treated mice maintained normoglycemia compared to 2/11 of the control mice. The average insulin secretion of the treated mice in both of these experiments was five times greater than the control mice.

[5] = system: NOD mice; experiment: Serum insulin / insulin secretion in NOD mice treated with IGF-2; type: in vivo
Method: FIG. 30B depicts the levels of serum insulin in NOD mice measured two weeks after a 66 day course of treatment using IGF-2. Mice that were treated with 3000 μg/kg/day of IGF-2 had serum insulin levels that were about 4-fold higher than the control mice.
as §1

[6] = system: NOD mice; experiment: Islet cell staining for glucagon and insulin in NOD mice; type: in vivo; conditions: NOD mice treated with IGF-2 for 13 weeks
Text: FIG. 30D confirms the results shown in FIG. 30C and provides the number of cells staining positive for insulin in NOD mice treated with IGF-2 (right bar) versus untreated NOD mice (left bar).

[7] = system: β-MIN6 cells; experiment: Insulin secretion of β-MIN6 cells following glucose induction; type: cell-based, mouse; conditions: IGF-2 5 nM, 20 nM, 80 nM, 1 week treatment
Text: β-MIN6 cells serve as an in vitro model of mouse pancreatic islets. β-MIN6 cells were used as an in vitro model to measure the effects of treatment with IGF-2.

[8] = system: Beta-TC-6 cells; experiment: Insulin secretion assay using Beta-TC-6 cells; type: cell-based; conditions: 2 hours, 500 mM of each peptide, Mouse Insulin ELISA
Method: To evaluate insulin secretion in response to peptide treatment, Beta-TC-6 cells were plated in 96-well culture plates at a density of 8×10^4 cells per well. After 48 hours of incubation, the cells were washed and preincubated in serum-free medium for 1 hour. Following this, cells were treated for 2 hours with 200 μl of serum-free medium supplemented with […] of each peptide. After the treatment period, the induction medium was collected and stored at −80° C. until analysis. Insulin levels in the collected medium were measured using the Mercodia Mouse Insulin ELISA Kit (#10-1247-01) according to the manufacturer's instructions. […] Results appear in FIG. 36.

[9] = system: Human pancreatic islets; experiment: Peptides efficacy on human pancreatic islets (IHC, digital quantitative pathological analysis); type: cell-based; conditions: IGF-2 500 nM, Peptide-20 1000 nM, five days
Method: Human pancreatic islets, obtained from Prodo Labs, were cultured in Prodo Labs PIM(S) media and maintained at 37° C. with 5% CO2 to ensure optimal viability. The islets were treated with IGF-2 (500 nM) and Peptide-20 (1000 nM) for five days under continuous exposure. After treatment, islets were collected and fixed in 4% paraformaldehyde (PFA) to preserve cellular and structural integrity. The samples were then processed for formalin-fixed paraffin-embedded (FFPE) histology. Sectioned islets were stained using immunohistochemistry (IHC) with specific markers to assess islet integrity, β-cell function, and proliferation. Microscopic Digital Quantitative Pathological Analysis provided critical insights into the effects of IGF-2 and Peptide-20 on islet structure and function. […] These findings establish Peptide-20 as a strong candidate for novel diabetes therapies aimed at restoring islet function and reversing β-cell loss. […] Their ability to enhance β-cell survival and proliferation positions them as strong candidates for the development of novel regenerative therapies, paving the way for innovative drug development aimed at reversing diabetes and restoring endogenous insulin production.

[10] = system: C57BL/6 STZ mice; experiment: Fasting blood glucose in STZ-induced diabetic C57BL/6 mice treated with IGF-2; type: in vivo; conditions: IGF-2 12,000 μg/kg daily on each of 12 consecutive days

Substance: insulin-like growth factor 2 [IGF-2]
- Free IGF-2 in the blood (peak) [1]: 1 µg
- Peak total concentration of IGF-2 in the blood [1]: about 16 μg
- Response to the glucose tolerance test (permanently cured mice) ([2]; 12,000 μg/kg/day for 5 or 10 days, test 50 days post-treatment, 2 grams/kg glucose, 180 minutes): fell between the glucose tolerance results from the literature for non-diabetic obese mice and non-diabetic lean mice
- Glucose levels in the glucose tolerance test (Mouse 01, not permanently cured) ([2]; 12,000 μg/kg/day, test 50 days post-treatment, 2 grams/kg glucose): higher than the normal obese mouse
- Number of IGF-2-treated mice permanently cured ([2]; six STZ mice treated with 12,000 μg/kg/day, four for 5 days and two for 10 days): Five
- Increase in serum insulin levels with respect to the control [3]: about 50%
- Fraction of the treated mice that maintained normoglycemia ([4]; 3000 μg/kg daily for 75 days, follow-up for an additional 90 days): ⅝
- Fraction of the treated mice that maintained normoglycemia ([4]; 3000 μg/kg daily for 150 days): ⅘
- Incidence of spontaneous autoimmune type 1 diabetes ([4]; 3000 μg/kg on each of 66 consecutive days and post-treatment): significantly reduced
- Incidence of spontaneous autoimmune attack ([4]; 3000 μg/kg on each of 76 consecutive days): reduced dramatically
- Number of treated mice that had developed high glucose levels ([4]; at the end of the 76 days of treatment with 3000 μg/kg): two
- Serum insulin levels relative to the control mice ([5]; 3000 μg/kg/day for 66 days, measured two weeks after treatment): about 4 fold
- Average insulin secretion of the treated mice relative to the control mice ([5]; both experiments (150 days; 75 days plus 90 days follow-up)): five
- Islet cells (histological staining for glucagon and insulin) [6]: fully functional islet cells
- Insulin secretion following glucose induction [7]: increases insulin secretion (following glucose induction) in a dose-dependent manner
- Insulin secretion compared to the control [8]: enhanced insulin secretion compared to the control
- Pancreatic islet regeneration, integrity and function [9]: significant regenerative potential
- Long-term improvements in blood glucose levels [10]: long-term improvements in blood glucose levels were obtained
